Experiments:
[1] = target: T1, GST-hLGK1 (human hepatic GK) (Homo sapiens, UniProt P35557); assay: Measurement of GK activation value (Mant-ATP/Mant-ADP capillary electrophoresis, reaction rate); assay type: biochemical; details: concentration necessary for activation of 50% of the maximum activity value; 37° C., 60 min
T1 construct: made in house; host or cells: Escherichia coli BL21 (pGEX6P-2/hLGK1)
T1 sequence (P35557 1-464 isoform P35557-3): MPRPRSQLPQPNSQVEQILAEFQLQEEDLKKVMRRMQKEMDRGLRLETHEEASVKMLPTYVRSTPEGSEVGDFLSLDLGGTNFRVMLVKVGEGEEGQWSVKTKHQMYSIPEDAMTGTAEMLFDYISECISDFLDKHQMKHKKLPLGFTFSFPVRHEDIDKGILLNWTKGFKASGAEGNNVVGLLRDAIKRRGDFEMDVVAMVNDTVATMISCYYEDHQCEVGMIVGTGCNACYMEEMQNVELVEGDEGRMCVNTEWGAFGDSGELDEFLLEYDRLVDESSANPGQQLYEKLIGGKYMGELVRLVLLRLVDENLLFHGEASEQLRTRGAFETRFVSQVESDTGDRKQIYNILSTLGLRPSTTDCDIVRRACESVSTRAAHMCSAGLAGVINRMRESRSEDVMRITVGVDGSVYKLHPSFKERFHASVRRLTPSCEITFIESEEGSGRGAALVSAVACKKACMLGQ
Description: A plasmid DNA for expression of protein (GST-hLGK1) containing GST (Glutathione S-transferase) added to human hepatic GK amino terminal in Escherichia coli was prepared as follows.
BL21 strain (Stratagene) transformed with pGEX6P-2/hLGK1 obtained in Reference Example 1A was cultured with shaking in a 200 ml Erlenmeyer flask containing a 100 μg/ml ampicillin-containing LB medium (50 ml) at 37° C. for 14 hr. The culture medium (25 ml) was diluted with 100 μg/ml ampicillin-containing LB medium (225 ml), and further cultured with shaking in a 1 L Erlenmeyer flask at 37° C. for 1 hr. After cooling on ice the Erlenmeyer flask after culture, 100 mM Isopropyl-Thio-β-D-Galactopyranoside (IPTG) (125 μL) was added (final concentration 50 μM), and the mixture was cultured at 17° C. for 20 hr. After centrifugation of the culture medium, the obtained cells were ultrasonicated, and the object protein (GST-hLGK1) was purified from the supernatant using Glutathione Sepharose 4B (Amersham Biosciences).
A 50% solution (5 μL) of the test compound in dimethyl sulfoxide was added to each well of a 384 well black plate (Nalge Nunc). Then, 35 μL of a liquid obtained by diluting GST-hLGK1 obtained in Reference Example 2A with a measurement buffer (50 mM HEPES (pH 7.4), containing 200 mM KCl, 5 mM MgCl2, 2.5 mM DTT and 50 μM 2′-(or-3′)-O—(N-methylanthraniloyl)adenosine 5′-triphosphate (Mant-ATP) (Jena Bioscience)) was added to each well to 6 μg/mL.
Each well was stood at 37° C. for 10 min, and a 25 mM D-glucose solution (10 μL) was added to start the reaction.
Each well after the start of the reaction was stood at 37° C. for 60 min, and the reaction was quenched by adding 25 μL of a reaction quenching solution (200 mM HEPES (pH 7.4), containing 20 mM MgCl2, 200 mM EDTA, 0.03% Triton-X 100, 0.3% Coating 3 reagent (Caliper Life Sciences)).
Mant-ATP (substrate) and Mant-ADP (reaction resultant product) were separated from each well after quenching the reaction, with a microchip type capillary electrophoresis apparatus 250HTS (Caliper Life Sciences). The reaction rate [(peak height of reaction resultant product)/(peak height of reaction resultant product+peak height of substrate)×100(%)] was calculated from the ratio of the substrate peak height and the reaction resultant product peak height, which were obtained by fluorescence detection (excitation wavelength 355 nm, measurement wavelength 460 nm), and used as an index of the GK activity.
For the control, the reaction rate was calculated in the same manner as in the above except that “50% dimethyl sulfoxide solution” was used instead of the “50% solution of the test compound in dimethyl sulfoxide”.
A percentage obtained by dividing the reaction rate of the well added with the test compound (test compound addition group) by the reaction rate of the well added with a 50% dimethyl sulfoxide solution alone (control group) was taken as the GK activation value by the test compound, and the concentration of the test compound necessary for the activation of 50% of the maximum activity value is shown as an EC50 value.

SMILES | melting point | EC50 [1]
CC(C)Oc1cc(OCc2ccccc2)cc(-c2nc3cccnc3[nH]2)c1 [Example 2, 2-[3-(benzyloxy)-5-isopropoxyphenyl]-3H-imidazo[4,5-b]pyridine] | 136 to 137 °C | 130 nM
CC(C)Oc1cc(OCCc2ccsc2)cc(-c2nc3cccnc3[nH]2)c1 [Example 3, 2-{3-isopropoxy-5-[2-(3-thienyl)ethoxy]phenyl}-3H-imidazo[4,5-b]pyridine] | 82 to 83 °C | 150 nM
CC(C)Oc1cc(OCCCc2cccnc2)cc(-c2nc3cccnc3[nH]2)c1 [Example 4, 2-[3-isopropoxy-5-(3-pyridin-3-ylpropoxy)phenyl]-3H-imidazo[4,5-b]pyridine] | 110 to 112 °C | 1600 nM
COc1ccc(OCc2ccccc2)cc1-c1nc2cccnc2[nH]1 [Example 5, 2-(5-(benzyloxy)-2-methoxyphenyl)-3H-imidazo[4,5-b]pyridine] | – | 2100 nM
CC(C)Oc1ccc(OCc2ccccc2)cc1-c1nc2cc(-c3cccnc3)cnc2[nH]1 [Example 40, 2-[5-(benzyloxy)-2-isopropoxyphenyl]-6-pyridin-3-yl-3H-imidazo[4,5-b]pyridine] | – | 440 nM
COc1ccc(-c2cnc3[nH]c(-c4cc(OCc5ccccc5)ccc4OC(C)C)nc3c2)c(OC)c1 [Example 45, 2-[5-(benzyloxy)-2-isopropoxyphenyl]-6-(2,4-dimethoxyphenyl)-3H-imidazo[4,5-b]pyridine] | – | 280 nM
Cc1ccccc1-c1cnc2[nH]c(-c3cc(OCc4ccccc4)ccc3OC(C)C)nc2c1 [Example 47, 2-[5-(benzyloxy)-2-isopropoxyphenyl]-6-(2-methylphenyl)-3H-imidazo[4,5-b]pyridine] | – | 400 nM
COc1ccccc1-c1cnc2[nH]c(-c3cc(OCc4ccccc4)ccc3OC(C)C)nc2c1 [Example 48, 2-[5-(benzyloxy)-2-isopropoxyphenyl]-6-(2-methoxyphenyl)-3H-imidazo[4,5-b]pyridine] | – | 240 nM
CC(C)Oc1cc(OCc2ccccc2)ccc1-c1nc2cc(-c3ccc(F)cc3)cnc2[nH]1 [Example 50, 2-[4-(benzyloxy)-2-isopropoxyphenyl]-6-(4-fluorophenyl)-3H-imidazo[4,5-b]pyridine] | – | 290 nM
COc1ccc(-c2cnc3[nH]c(-c4ccc(OCc5ccccc5)cc4OC(C)C)nc3c2)cc1 [Example 51, 2-[4-(benzyloxy)-2-isopropoxyphenyl]-6-(4-methoxyphenyl)-3H-imidazo[4,5-b]pyridine] | – | 250 nM
CC(C)Oc1cc(OCc2ccccc2)cc(-c2nc3cc(-c4cccnc4)cnc3[nH]2)c1 [Example 61, 2-[3-(benzyloxy)-5-isopropoxyphenyl]-6-pyridin-3-yl-3H-imidazo[4,5-b]pyridine] | – | 1100 nM
CC(C)Oc1cc(OCc2ccccc2)ccc1-c1nc2cc(-c3ccccc3F)cnc2[nH]1 [Example 72, 2-[4-(benzyloxy)-2-isopropoxyphenyl]-6-(2-fluorophenyl)-3H-imidazo[4,5-b]pyridine] | – | 200 nM
CC(C)Oc1cc(OCc2ccccc2)ccc1-c1nc2cc(-c3cccc(F)c3)cnc2[nH]1 [Example 73, 2-[4-(benzyloxy)-2-isopropoxyphenyl]-6-(3-fluorophenyl)-3H-imidazo[4,5-b]pyridine] | – | 150 nM
CCOC(=O)c1cnc2[nH]c(-c3cc(OCc4ccccc4)ccc3OC(C)C)nc2c1 [Example 74, ethyl 2-[5-(benzyloxy)-2-isopropoxyphenyl]-3H-imidazo[4,5-b]pyridine-6-carboxylate] | 138 to 140 °C | –
CC(C)Oc1ccc(OCc2ccccc2)cc1-c1nc2cc(CO)cnc2[nH]1 [Example 76, {2-[5-(benzyloxy)-2-isopropoxyphenyl]-3H-imidazo[4,5-b]pyridin-6-yl}methanol] | 167 to 168 °C | 730 nM
CC(C)Oc1ccc(OCc2ccccc2)cc1-c1nc2cc(C=O)cnc2[nH]1 [Example 77, 2-[5-(benzyloxy)-2-isopropoxyphenyl]-3H-imidazo[4,5-b]pyridine-6-carbaldehyde] | 170 to 171 °C | –
CC(C)CNCc1cnc2[nH]c(-c3cc(OCc4ccccc4)ccc3OC(C)C)nc2c1 [Example 78, N-({2-[5-(benzyloxy)-2-isopropoxyphenyl]-3H-imidazo[4,5-b]pyridin-6-yl}methyl)-2-methylpropan-1-amine] | 101 to 103 °C | –
CC(C)Oc1ccc(OCc2ccccc2)cc1-c1nc2cc(CNCc3ccccc3)cnc2[nH]1 [Example 79, N-benzyl-1-{2-[5-(benzyloxy)-2-isopropoxyphenyl]-3H-imidazo[4,5-b]pyridin-6-yl}methaneamine] | 92 to 94 °C | –
CC(C)Oc1ccc(OCc2ccccc2)cc1-c1nc2cc(CNCCOc3ccccc3)cnc2[nH]1 [Example 80, N-({2-[5-(benzyloxy)-2-isopropoxyphenyl]-3H-imidazo[4,5-b]pyridin-6-yl}methyl)-2-phenoxyethaneamine] | 67 to 68 °C | 820 nM
COCCNCc1cnc2[nH]c(-c3cc(OCc4ccccc4)ccc3OC(C)C)nc2c1 [Example 81, N-({2-[5-(benzyloxy)-2-isopropoxyphenyl]-3H-imidazo[4,5-b]pyridin-6-yl}methyl)-2-methoxyethaneamine] | 80 to 81 °C | –
COC(=O)CNCc1cnc2[nH]c(-c3cc(OCc4ccccc4)ccc3OC(C)C)nc2c1 [Example 82, methyl N-({2-[5-(benzyloxy)-2-isopropoxyphenyl]-3H-imidazo[4,5-b]pyridin-6-yl}methyl)glycinate] | 69 to 71 °C | 3700 nM
CC(C)Oc1ccc(OCc2ccccc2)cc1-c1nc2cc(CNCC(=O)O)cnc2[nH]1 [Example 83, N-({2-[5-(benzyloxy)-2-isopropoxyphenyl]-3H-imidazo[4,5-b]pyridin-6-yl}methyl)glycine] | 182 to 184 °C | –
CC(C)Oc1ccc(OCc2ccccc2)cc1-c1nc2ccc(C#N)nc2[nH]1 [Example 84, 2-[5-(benzyloxy)-2-isopropoxyphenyl]-3H-imidazo[4,5-b]pyridine-5-carbonitrile] | 214 to 215 °C | –
CC(C)Oc1ccc(OCc2ccccc2)cc1-c1nc2ccc(CO)nc2[nH]1 [Example 87, {2-[5-(benzyloxy)-2-isopropoxyphenyl]-3H-imidazo[4,5-b]pyridin-5-yl}methanol] | 167 to 168 °C | –
